The target of one test is T1, interferon γ (IFN-γ) (Homo sapiens, UniProt P01579).
T1 construct: purchased Sigma; host or cells: Escherichia coli
T1 sequence (P01579 24-166): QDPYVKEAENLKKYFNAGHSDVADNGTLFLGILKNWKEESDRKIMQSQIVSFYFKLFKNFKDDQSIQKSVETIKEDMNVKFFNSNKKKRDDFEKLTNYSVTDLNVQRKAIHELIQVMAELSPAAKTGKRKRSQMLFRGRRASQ
Put plainly: interferon γ binding to lipid-linked oligosaccharide array on nitrocellulose. From the text:
(§1) The lipid-linked oligosaccharides (in chloroform:methanol:water, 25:25:8 v/v) were applied by jet spray with a sample applicator (Linomat IV, Camag, Switzerland) as 2 mm bands for ‘miniarray’, or as […] spots for ‘microarray’ format, onto 0.45 μm nitrocellulose or 0.2 μm PVDF membranes (both from Bio-Rad, Hemel Hempstead, UK), or aluminium-backed silica gel plates (Merck). When fluorescent NGLs were applied onto the membranes, and examined directly under UV light, 1-2 pmol was clearly visible above the background on the PVDF, whereas on nitrocellulose, 5 pmol was required due to a high fluorescent background. For detection, therefore, the fluorescent NGLs were printed onto PVDF membranes; the non-fluorescent lipid-linked oligosaccharides were printed onto silica gel plates and detected with primulin stain.
(§2) For cytokine/chemokine-binding experiments, the membranes were blocked for 1 h with 3% (w/v) BSA in 10 mM Tris-HCl buffer containing 150 mM NaCl, 2 mM CaCl2 and 0.8 mM MgCl2 (TNCM), overlaid with INFγ or RANTES at 1 μg per ml diluted in TNCM/BSA, incubated for 16 h at 4° C.
(§3) The membranes were washed four times, for 30 min with 10 mM Tris-HCl buffer containing 20 mM NaCl, 5 mM CaCl2 and 2 mM MgCl2 (TNCM-L) to minimize elution of the bound proteins^31. […] Carbohydrate-binding experiments with NGLs resolved by TLC were performed as described^12.

Test [1] addresses T2, recombinant soluble L-selectin IgG chimera (Homo sapiens, UniProt P14151).
T2 construct: recombinant soluble L-selectin IgG chimera; made in house; host or cells: transfected Chinese hamster ovary cells (provided by Dr Gray Shaw, Genetics Institute)
T2 sequence (P14151 39-332 limits assumed): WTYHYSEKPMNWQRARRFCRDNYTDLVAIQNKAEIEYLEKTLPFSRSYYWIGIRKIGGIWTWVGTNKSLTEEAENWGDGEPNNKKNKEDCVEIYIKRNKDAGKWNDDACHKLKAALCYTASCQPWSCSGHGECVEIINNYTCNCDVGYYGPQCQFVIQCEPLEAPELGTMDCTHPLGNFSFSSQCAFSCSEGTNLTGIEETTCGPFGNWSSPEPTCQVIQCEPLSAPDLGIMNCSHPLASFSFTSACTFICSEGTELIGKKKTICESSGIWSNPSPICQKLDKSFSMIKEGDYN
The test can be described thus: L-selectin binding to lipid-linked oligosaccharide array on nitrocellulose. Particulars: array IDs 1-30 on nitrocellulose, 10 pmol per spot.
Source text: as §1
Selectin-binding experiments were carried out as above except that the membranes were ‘blocked’ 1% (w/v) casein in 10 mM Tris-HCl buffer pH 7.4 containing 50 mM CaCl2 and 150 mM NaCl (TBS/Ca) and overlaid for 2 h with L-selectin (1 μg/ml pre-complexed^42 with biotinylated anti-human IgG from Vector), or E-selectin (at 1 μg/ml) in TBS/Ca. Binding of L-selectin was detected by overlaying with HRP-conjugated streptavidin (Sigma), 10 μg/ml, in TBS/Ca containing 1% casein. Binding of E-selectin was detected by overlaying with biotinylated anti-human IgM (Sigma), 5 μg/ml, followed by the HRP-conjugated streptavidin.

Test [2] concerns monoclonal antibody HNK-1 (anti-HNK-1). The test can be described thus: anti-HNK-1 binding to lipid-linked oligosaccharide arrays on nitrocellulose. Particulars: array IDs 1-30 on nitrocellulose, 10 pmol per spot.
Source text: as §1
(§4) Experiments were carried out at ambient temperature unless stated otherwise. The dilutions of the antibodies used were those recommended by the manufacturers or providers. Concentrations where known are indicated. For antibody-binding experiments, the membranes were ‘blocked’ for 1 h with 3% (w/v) bovine serum albumin (BSA) in phosphate buffered saline (10 mM phosphate buffer containing 150 mM NaCl) pH 7.4 (PBS), and overlaid with for 2 h with the antibodies diluted in phosphate buffered saline containing 3% BSA (PBS/BSA). […]

In a further test the target is T3, chemokine RANTES (Homo sapiens, UniProt P13501).
T3 construct: purchased R&D systems; host or cells: Escherichia coli
T3 sequence (P13501 24-91): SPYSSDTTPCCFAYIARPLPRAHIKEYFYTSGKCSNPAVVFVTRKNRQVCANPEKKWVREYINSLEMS
The test can be described thus: RANTES binding to lipid-linked oligosaccharide array on nitrocellulose. The following applies: array IDs 1-30 at 10 pmol per spot.
Source text: as §1, §2, §3

Test [3] relates to anti-SSEA-1 monoclonal antibody. Put plainly: anti-SSEA-1 binding to lipid-linked oligosaccharide arrays on membranes. More on the design: species or system murine. The following applies: array IDs 1-30 on nitrocellulose, 10 pmol per spot.
Source text: as §1, §4

For test [4], the system named is anti-L5 monoclonal antibody. Put plainly: anti-L5 binding to lipid-linked oligosaccharide arrays on nitrocellulose. More on the design: species or system rat. Particulars: array IDs 1-30 on nitrocellulose, 10 pmol per spot.
Source text: as §1, §4

The target in a further test is TSG-6 (Homo sapiens, UniProt P98066). Put plainly: TSG-6 binding to HA and HA NGL on nitrocellulose-coated FastSlide. The following applies: 2 mm bands on FastSlide, DAB colour, FIG. 9. From the text:
NGL samples in organic-based solvent mixture (chloroform/methanol/water 25:25:8, by vol), and also polysaccharides, glycosaminoglycans (GAGs) and glycoproteins in water, were arrayed with N2-assisted jet spray as 1-2 mm bands or 150 μm spots.
Binding to the arrayed samples was detected using biotinylated antibodies directed to the proteins being investigated, followed by conventional ELISA-DAB colour reaction or by using CyS-labelled streptavidin.
Similarly, different amounts of hyaluronic acid polysaccharide (HA) (5 to 500 ng) and its oligosaccharide derived NGL, HA 8mer-DHPE (0.05 to 5 pmol), were applied as 2 mm bands onto a nitrocellulose coated FastSlide. The interactions of TSG-6 (a protein which can bind to the HA) with the carbohydrate-containing molecules on the support material, HA and the HA NGL, are shown in FIG. 9.

The subject of the next test is monoclonal antibody C-14. The test can be described thus: C-14 antibody binding to lipid-linked oligosaccharide array on nitrocellulose. On the set-up: species or system murine. Particulars: array IDs 1-30 on nitrocellulose, 10 pmol per spot.
Source text: as §1, §4

The mark [5] stands for this setting: array IDs 1-30 printed at 1 pmol per spot.
Where [6] appears, read: array IDs 1-30 at 10 pmol per spot.

The values below come from patent US20040259142A1, “Products and methods” (Imperial College Innovations Limited, priority 2003, published 2004).

Sequence of TSG-6 (P98066 18-277, species assumed): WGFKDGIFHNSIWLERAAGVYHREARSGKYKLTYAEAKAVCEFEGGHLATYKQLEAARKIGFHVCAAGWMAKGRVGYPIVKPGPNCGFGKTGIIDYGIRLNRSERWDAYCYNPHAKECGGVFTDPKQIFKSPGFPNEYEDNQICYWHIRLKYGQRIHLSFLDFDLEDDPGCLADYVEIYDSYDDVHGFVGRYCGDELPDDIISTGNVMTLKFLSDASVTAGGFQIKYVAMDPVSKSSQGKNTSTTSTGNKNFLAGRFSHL

As to 3′-SU-Le^x-5 [ID 16], the IFN-γ binding entry at interferon γ (IFN-γ) (setting [5]) is “weak binding”.
Turning to `O=C(O)C1=C[C@H](O)[C@@H](OS(=O)(=O)O)[C@H](O[C@H]2[C@H](O)[C@@H](NS(=O)(=O)O)[C@@H](O)O[C@@H]2COS(=O)(=O)O)O1` [ID 28, HS/HEP 2mer], the L-selectin binding entry in test [1] is listed as “binding”. Further, the IFN-γ binding result at interferon γ (IFN-γ) (setting [5]) is recorded as “clear preference”.
`CC(=O)NC1C(O)CC(OC2C(O)C(CO)OC(OC3C(CO)OC(OC4C(O)C(CO)OC(OC5C(CO)OC(O)C(O)C5O)C4O)C(NC(C)=O)C3OC3OC(C)C(O)C(O)C3O)C2O)(C(=O)O)OC1C(O)C(O)CO` (stereo not shown) [ID 14, 3′-SA-Le^x-5]: in test [1], the L-selectin binding result is listed as “weak”.
For Man5-phosphate [ID 21], in test [1], the L-selectin binding result is reported as “binding”.
Turning to 3′,6-SU-Le^x-5 [ID 17], the IFN-γ binding result on interferon γ (IFN-γ) (setting [5]) is reported as “weak binding”.
For HNK-1 [ID 20], the “binding of anti-HNK-1” value in test [2] is “bound”. In test [1], the L-selectin binding result is on record as “binding”. For the same compound, the IFN-γ binding entry on interferon γ (IFN-γ) (setting [6]) was “additional or increased binding signals”. Besides, the RANTES binding entry at chemokine RANTES is on record as “additional or increased binding signals”.
lacto-N-fucopentaose III [ID 10]: the “binding of anti-SSEA-1” value in test [3] is listed as “bound”. Further, in test [4], the “binding of anti-L5” value is on record as “bound”.
Regarding 6′-SU-3′-SA-Le^x5 [ID 19], the IFN-γ binding entry at interferon γ (IFN-γ) (setting [6]) was “additional or increased binding signals”. For the same compound, the RANTES binding result on chemokine RANTES is reported as “additional or increased binding signals”.
In the case of hyaluronic acid [HA polysaccharide], the “sensitivity of detection of TSG-6 binding” value at TSG-6 is recorded as “nanograms”.
Regarding `CC(=O)NC1C(OC2C(O)C(CO)OC(OC3C(CO)OC(O)C(O)C3O)C2O)OC(CO)C(OC2OC(CO)C(O)C(O)C2OC2OC(C)C(O)C(O)C2O)C1OC1OC(C)C(O)C(O)C1O` (stereo not shown) [ID 12, lacto-N-neo-difucohexaose I], the “binding of C-14 antibody” value in the test with monoclonal antibody C-14 is listed as “bound”.
